{"source": "patent US20090018146A1", "about": "“Combination Therapy with Triterpenoid Compounds and Proteasome Inhibitors” (Research Development Corporation, priority 2005, published 2009)", "key": {"[1]": {"test_system": "20S activity", "conditions": "general statement on proteasome inhibitors; cited from earlier work"}, "[2]": {"test_system": "S. pombe cells", "test": "Detection of ubiquitinated proteins in S. pombe", "format": "cell-based, Schizosaccharomyces pombe", "conditions": "wild type S. pombe, 20 μg/ml avicin G, after 90 minutes (1.5 hours), immunoblot", "experimental": "(§1) Standard yeast culture media and genetic methods were used (Alfa et al., 1993; Rose et al., 1990). S. pombe cultures were grown in either YEAU (0.5% yeast extract, 3% dextrose, 75 […]) or synthetic minimal medium (EMM) with appropriate supplements.\nS. pombe cultures were lysed with glass beads in PEM buffer (100 mM PIPES, 1 mM EGTA, 1 mM MgSO4, pH 6.9) containing 4 mM benzamide, 10 μM E64, 50 μM leupeptin, 1 μM pepstatin, 1 mM phenylmethanesulfonyl fluoride, and 2 μg/ml aprotinin essentially as described in (Yen et al., 2003). Equal amounts of protein were resolved by SDS-PAGE and subsequent immunoblotting using anti-ubiquitin mouse monoclonal antibody (Stressgen Biotechnologies)."}, "[3]": {"test_system": "S. pombe", "test": "Effects of avicin G on the growth of S. pombe wild type and mutants", "format": "cell-based, Schizosaccharomyces pombe", "conditions": "for sensitivity to avicin G relative to wild-type: 26° C.", "experimental": "FIGS. 10A and 10B: Effects of Avicin G on the Growth of S. pombe Mutants. Wild type, mts2-1 (mts2), mts3-1 (mts3), and nuc2-663 cells were spread on YEAU plates. Avicin G (25 jug) was then spotted onto the respective cell lawns and the plates were incubated at 26° C. for 5 days. The relative avicin G sensitivity of each strain, based on measurements of areas of avicin G-induced growth inhibition, was then determined, with wild-type cells being normalized to a value of 1 (FIG. 10A).\nas §1"}, "[4]": {"test_system": "Hsp70", "test": "Western blot of Hsp70 protein in avicin D treated Jurkat cells", "format": "cell-based, human", "experimental": "(§2) Jurkat T cells (2 μg/ml=1 μM), U-937 (4 μg/ml), MJ (5 μg/ml), and HH cells (2.5 μg/ml) were treated for 0-24 hours with the indicated concentrations of avicin D. PBLs from the patients or normal blood were treated with 5 μg/ml of avicin D for 24 hours.\n(§3) At the end of treatments, cells were harvested, washed with sterile ice-cold PBS and cytoplasmic extracts (CE) were prepared by lysing the cells in CE buffer containing 10 mM Hepes-Cl pH 7.5, 10 mM KCl, 0.1 mM EDTA, 0.1 mM EGTA, 0.3% NP40, and a protease inhibitor cocktail (Sigma). After centrifugation and separating the supernatant (CE proteins), the pellet was resuspended in a buffer containing 20 mM Hepes-Cl, 400 mM NaCl, 1 mM EDTA, 1 mM EGTA, and protease inhibitor cocktail (Sigma). The nuclear protein extraction proceeded for 30 min. on ice followed by centrifugation at 14,000 rpm for 5 min at 4° C. The clear supernatant containing nuclear proteins (NE) was collected, glycerol (10%) was added, and proteins stored at −80° C. until use.\n(§4) SDS-PAGE and immunoblot procedures were essentially performed as described (Sambrook, 1989). Briefly, cytoplasmic and nuclear proteins were resolved on SDS-PAGE, blotted on PVDF membranes (BioRad) and probed with various antibodies followed with anti-rabbit, anti-mouse antibody conjugated to horseradish peroxidase (HRP) from BioRad or HRP conjugated anti-goat antibody from Santa Cruz Biotechnology, corresponding to the primary antibody. Protein bands were detected using the ECL chemiluminescence kit from Amersham as per the manufacturer's protocol.\n(§5) Quantitation of proteins (western) and transcripts (RT-PCR) was performed using the NIH 1.61 image software."}, "[5]": {"test_system": "Hsp90", "test": "Western blot of Hsp90 protein in avicin D treated Jurkat cells", "format": "cell-based, human", "conditions": "lactacystin 10 μM 30 minutes, then avicin D 4 hours", "experimental": "as §2, §3\nSDS-PAGE and immunoblot procedures were essentially performed as described (Sambrook, 1989). […] Protein bands were detected using the ECL chemiluminescence kit from Amersham as per the manufacturer's protocol.\nas §5"}, "[6]": {"test_system": "his-ub-Hsp70", "test": "In vivo ubiquitination of Hsp70 in his-ub transfected Jurkat cells", "format": "cell-based, human", "conditions": "lactacystin 10 μM 30 minutes pretreatment, then avicin D 4 hours", "experimental": "Jurkat T-cells were transfected with a plasmid pDG268 that expresses a fusion protein of histidine-tagged human ubiquitin and enhanced GFP. Transfection was performed using μm ax a Biosystems kit and their protocol. After 24 hours of transfection, cells were harvested, resuspended at a density of 10^6 cells/ml before treatment with lactacystin or avicin D.\nJurkat T cells transfected with the his-ub plasmid construct were treated with lactacystin (10 μM) or with avicin D (1 μM) for 4 hours. Cells were harvested and CE prepared as described above. […] The affinity purified histidine-tagged proteins were separated on SDS-PAGE and analyzed on western blots for ub-Hsp70 proteins."}, "[7]": {"test_system": "XIAP", "test": "Western blot of XIAP protein in Jurkat cells", "format": "cell-based, human", "experimental": "as §2, §3, §4, §5"}}, "note": "Residues, ends and D or L forms follow the SMILES beside them. *: point of attachment. Cbz = O=C(OCc1ccccc1)*; CH2F = FC*", "data": [{"smiles": "CC(C)C[C@H](NC(=O)[C@H](Cc1ccccc1)NC(=O)c1cnccn1)B(O)O", "note": "[PS341]", "values": [{"measurement": "suppression of 20S activity", "setting": "[1]", "value": "suppress 20S activity completely"}]}, {"smiles": "C=C[C@](C)(O)CC/C=C(\\C)C(=O)O[C@H]1[C@H](O)[C@@H](O)[C@H](O[C@@](C)(C=C)CC/C=C(\\CO)C(=O)O[C@H]2C[C@]3(C(=O)O[C@@H]4O[C@H](CO)[C@@H](O)[C@H](O)[C@H]4O[C@@H]4O[C@@H](C)[C@H](O[C@@H]5O[C@@H](CO)[C@H](O)[C@H]5O)[C@@H](O[C@@H]5O[C@H](CO)[C@@H](O)[C@H](O)[C@H]5O)[C@H]4O)[C@H](O)C[C@]4(C)C(=CC[C@@H]5[C@@]6(C)CC[C@H](O[C@@H]7O[C@H](CO[C@@H]8O[C@H](C)[C@H](O)[C@H](O)[C@H]8O[C@@H]8OC[C@@H](O)[C@H](O)[C@H]8O)[C@@H](O)[C@H](O)[C@H]7NC(C)=O)C(C)(C)[C@@H]6CC[C@]54C)[C@@H]3CC2(C)C)O[C@@H]1C", "note": "[avicin G]", "values": [{"measurement": "levels of ubiquitinated proteins", "setting": "[2]", "value": "increase in the levels of ubiquitinated proteins"}, {"measurement": "sensitivity to avicin G relative to wild-type", "setting": "[3]; mts2-1 26S proteasome mutant, 25 μg spotted, 5 days", "value": "only slightly increased"}, {"measurement": "sensitivity to avicin G relative to wild-type", "setting": "[3]; mts3-1 26S proteasome mutant, 25 μg spotted, 5 days", "value": "only slightly increased"}, {"measurement": "sensitivity to avicin G relative to wild-type", "setting": "[3]; nuc2-663 APC mutant", "value": "markedly resistant"}, {"measurement": "growth on YEAU containing 16 μg/ml avicin G", "setting": "[3]; nuc2-663 cells, 5 days at 26° C.", "value": "grew"}]}, {"smiles": "CC(=O)N[C@@H](CSC(=O)[C@]1([C@@H](O)C(C)C)NC(=O)[C@H](C)[C@@H]1O)C(=O)O", "note": "[lactacystin, reference compound]", "values": [{"measurement": "effect of lactacystin pretreatment on the avicin-induced decrease in Hsp70 protein", "setting": "[4]; lactacystin 10 μM 30 minutes, then avicin D 4 hours", "value": "totally reversed"}, {"measurement": "effect of lactacystin pretreatment on the avicin-induced decrease in Hsp90 protein", "setting": "[5]", "value": "totally reversed"}, {"measurement": "effect of lactacystin on the avicin-induced decrease of his-ub-Hsp70", "setting": "[6]", "value": "sensitive to lactacystin"}, {"measurement": "effect of lactacystin on the avicin induced XIAP decrease", "setting": "[7]; lactacystin 30 minutes prior to avicin D 4 hours", "value": "blocked"}]}, {"smiles": "COC(=O)C[C@H](NC(=O)[C@H](C)NC(=O)[C@@H](NC(=O)OCc1ccccc1)C(C)C)C(=O)CF", "note": "[zVAD-fmk, reference compound] (Cbz-Val-Ala-Asp(OMe)-CH2F)", "values": [{"measurement": "effect of caspase inhibition on the avicin-induced degradation of Hsp70", "setting": "[4]; zVAD-FMK 50 μM 30 minutes prior to avicin D 1 μM 4 hours", "value": "no significant effect"}, {"measurement": "block of avicin-induced XIAP degradation", "setting": "[7]; zVAD-FMK 50 μM prior to avicin D 4 hours", "value": "−22", "unit": "%"}]}]}
